Data as given in patent US7585886B2, “Pyrrolidine derivative or salt thereof” (Astellas Pharma Inc., priority 2005, dated 2009).
Where a name gives a salt, the structure may show the parent alone. Read-outs that look alike come from different tables or passages of the source.

Columns and labels:
human CaSR = target: T1, human CaSR (Homo sapiens, UniProt P41180); assay: Human calcium sensing receptor (CaSR) agonistic activity test (FLIPR, Fluo-3 intracellular Ca2+); format: cell-based
T1 construct: human CaSR open reading frame (ORF) was contained in the pcDNA3.1/Zeo(+) vector; expressed in transfected cells
T1 sequence (P41180 20-1078): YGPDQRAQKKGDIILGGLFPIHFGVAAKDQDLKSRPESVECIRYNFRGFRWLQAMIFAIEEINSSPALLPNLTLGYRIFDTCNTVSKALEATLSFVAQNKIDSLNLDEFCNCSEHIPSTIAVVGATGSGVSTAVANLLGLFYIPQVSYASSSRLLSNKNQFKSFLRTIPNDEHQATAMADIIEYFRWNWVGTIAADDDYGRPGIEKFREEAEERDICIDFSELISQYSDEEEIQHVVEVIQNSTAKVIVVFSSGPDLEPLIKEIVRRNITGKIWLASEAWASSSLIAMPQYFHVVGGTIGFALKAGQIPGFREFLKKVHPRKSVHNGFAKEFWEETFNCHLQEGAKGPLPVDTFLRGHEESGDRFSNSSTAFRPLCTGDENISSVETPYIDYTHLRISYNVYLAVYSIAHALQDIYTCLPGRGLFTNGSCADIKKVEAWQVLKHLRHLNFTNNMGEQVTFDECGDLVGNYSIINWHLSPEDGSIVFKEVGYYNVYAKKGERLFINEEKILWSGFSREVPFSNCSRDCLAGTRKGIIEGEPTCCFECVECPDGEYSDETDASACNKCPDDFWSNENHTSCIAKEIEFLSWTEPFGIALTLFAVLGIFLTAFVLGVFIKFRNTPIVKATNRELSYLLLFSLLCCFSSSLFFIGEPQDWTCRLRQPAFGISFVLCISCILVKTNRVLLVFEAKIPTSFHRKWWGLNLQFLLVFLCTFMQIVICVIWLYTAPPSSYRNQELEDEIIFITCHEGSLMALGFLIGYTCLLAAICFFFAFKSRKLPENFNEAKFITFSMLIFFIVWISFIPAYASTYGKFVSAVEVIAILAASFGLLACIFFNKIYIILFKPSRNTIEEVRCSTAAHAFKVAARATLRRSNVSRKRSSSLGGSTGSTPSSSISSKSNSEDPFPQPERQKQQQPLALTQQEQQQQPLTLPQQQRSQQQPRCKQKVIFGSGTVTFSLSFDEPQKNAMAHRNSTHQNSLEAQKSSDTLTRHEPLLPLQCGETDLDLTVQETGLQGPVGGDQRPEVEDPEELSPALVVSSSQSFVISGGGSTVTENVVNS
Text: Test 1. Human Calcium Sensing Receptor (CaSR) Agonistic Activity Test
• 1) Preparation of Human CaSR Expression Vector
A DNA fragment coding for human CaSR was cloned in the standard method. Illustratively, using 203 to 2387 of NM_000388 as a DNA fragment D4, and 2210 to 3633 as a DNA fragment B2, they were amplified using a human kidney cDNA (mfd. by Invitrogen) as the template and using a DNA polymerase (a registered trade name: Pyrobest, mfd. by Takara Bio), and respectively cloned into a pCR2.1 vector using a pCR2.1-Topo vector (mfd. by Invitrogen). Next, DNA fragments prepared by digesting pCR2.1-D4 with SpeI and XbaI were inserted into the same sites of pcDNA3.1/Zeo(+) vector. Successively, the fragments prepared by digesting pCR2.1-B2 with SacI and XbaI were inserted into the SacI and XbaI sites of previously prepared pcDNA3.1/Zeo(+)-D4 (SpeI-XbaI), thereby obtaining a human CaSR expression vector pcDNA3.1/Zeo(+)-hCaSR in which human CaSR open reading frame (ORF) was contained in the pcDNA3.1/Zeo(+) vector. • 2) Preparation of Human CaSR Expression Cell
The human CaSR expression vector was transferred into HEK 293 cell using a transfection reagent (registered trademark: FuGene 6, mfd. by Roche Diagnostics). After the gene transfer, this was cultured in DMEM (mfd. by Invitrogen) medium containing 40 μg/ml Zeocin (registered trademark) (mfd. by Invitrogen) and 10% fetal bovine serum at 37° C. for 2 weeks in the presence of 5% CO2, thereby obtaining Zeocin-resistant clones. An human CaSR stably expressing HEK 293 clone was obtained from these clones by selection using the responsiveness to extracellular Ca^2+ as the index. • 3) Human CaSR Agonistic Activity Test
The HEK 293 cell stably expressing human CaSR was inoculated into a poly-D-lysine-coated black clear bottom 96 well plate (mfd. by BD Bioscience). Hanks' balanced salt solution (HBSS) (Ca^2+ (−), Mg^2+ (−), mfd. by Invitrogen) containing 20 mM HEPES (2-[4-(2-hydroxyethyl)-1-piperazinyl]ethanesulfonic acid) buffer (pH 7.4), 2.5 mM probenecid (mfd. by Sigma) and 0.1% bovine serum albumin was prepared as a washing buffer. After the inoculation and subsequent overnight culturing, the medium was discarded, the washing buffer supplemented with 1 mM CaCl2 and 10 μM Fluo-3 AM (trade name, mfd by DOJINDO) was added thereto in 100 μl per well portions, and then the incubation was carried out at 37° C. for 1Hour in the presence of 5% CO2. This was washed twice with 200 μl of the washing buffer, replaced by 100 μl of the washing buffer supplemented with 0.5 mM CaCl2 and allowed to stand still for 10 minutes, and then the responsiveness to each compound to be evaluated was detected using a plate reader for fluorometry image analysis use (registered trademark: FLIPR, mfd. by Molecular Devices). In this connection, the compound to be evaluated was used by optionally diluting with the washing buffer supplemented with 0.5 mM Ca^2+.
The human CaSR agonistic activity strength of each compound to be evaluated was calculated by defining the solvent group as 0% and the 2 mM Ca^2+ in final concentration group as 100%, and the compound concentration showing 50% activity (EC50) was calculated from a concentration-activity curve by the method of least squares.

CYP2D6 [1] = target: T2, CYP2D6 (Homo sapiens, UniProt P10635); assay: Human CYP2D6 inhibition test (fluorescence substrate AMMC); format: in vitro ADME; parameters: purchased BD Gentest 456217
T2 sequence (P10635 whole entry): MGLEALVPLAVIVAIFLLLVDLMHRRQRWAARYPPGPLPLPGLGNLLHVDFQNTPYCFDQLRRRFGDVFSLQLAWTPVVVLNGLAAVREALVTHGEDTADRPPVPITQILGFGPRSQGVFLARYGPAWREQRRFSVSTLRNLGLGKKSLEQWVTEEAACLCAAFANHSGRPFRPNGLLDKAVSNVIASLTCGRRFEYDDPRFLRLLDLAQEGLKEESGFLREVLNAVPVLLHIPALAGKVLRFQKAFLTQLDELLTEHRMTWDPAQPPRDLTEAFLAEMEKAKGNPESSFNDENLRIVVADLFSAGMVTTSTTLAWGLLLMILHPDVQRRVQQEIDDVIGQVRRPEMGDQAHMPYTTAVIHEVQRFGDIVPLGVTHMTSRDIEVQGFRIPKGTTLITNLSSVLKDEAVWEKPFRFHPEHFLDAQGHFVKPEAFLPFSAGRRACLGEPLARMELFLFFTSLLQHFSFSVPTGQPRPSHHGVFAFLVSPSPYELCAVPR
Method: Test 3. Human CYP2D6 Inhibition Test
Inhibitory activity evaluation for CYP2D6 was carried out by measuring it in accordance, roughly, with a reference (“Drug Metabolism and Disposition”, 2001, vol. 29, p. 1196-1200).
Final concentrations of the reagents in the enzyme reaction solution were respectively ser to CYP2D6=[…] (mfd. by BD Gentest, Cat. No.: 456217), reduced type nicotinamide adenine dinucleotide phosphate (NADPH) regeneration system (0.0081 mM nicotinamide adenine dinucleotide phosphate (NADP+), 0.41 mM glucose-6-phosphate, 0.41 mM MgCl2, […] glucose-6-phosphate dehydrogenase), and a fluorescence substrate AMMC=1.5 μM, 100 mM potassium phosphate buffer (pH 7.4). Each compound was made into a 50% acetonitrile solution and added to the enzyme reaction solution (acetonitrile final concentration 2.5%). The enzyme reaction was carried out at 37° C. for 30 minutes, the reaction was stopped using a stopping liquid (0.1 M tris(hydroxymethyl)aminomethane (Tris-base):acetonitrile=20:80), and then fluorescence intensity was measured. The concentration showing 50% inhibition (IC50) was calculated from the thus obtained fluorescence intensity, by defining the enzyme activity at the time of no compound addition as 100%.

[2] = Measurement of rat plasma calcium concentration after single oral administration; format: in vivo; conditions: normal male rats, 3 mg/kg oral administration
Method: Test 2. Measurement of Rat Plasma Calcium Concentration and Plasma PTH Concentration
The compounds of the invention were administered to rats, and their influences upon the plasma calcium concentration and plasma PTH concentration were examined. The test was carried out by single oral administration of the compounds 5 or 6 normal male rats.
As a vehicle group, an MC solution prepared by adding 0.5% methyl cellulose (MC) solution or ethanol to a final concentration of 5% was administered at a dose of 5 ml/kg. As the comparative control, cinacalcet was dissolved in the MC solution and administered at a dose of 3 mg/kg. Each of the compounds, of the invention was dissolved or suspended the MC solution, or dissolved in ethanol and then diluted with the MC solution as occasion demands, and administered at a dose of 1, 3 or 10 mg/kg.
Blood samples were collected from the orbital venous plexus under ether anesthesia before the administration and 2Hours, 4Hours, or 8Hours in some cases, after the administration, and the plasma calcium concentration was measured using Calcium E-Test Wako (mfd. by Wako Pure Chemical Industries), and the plasma PTH concentration using Rat Intact PTH ELISA Kit (mfd. by Immutopics) or Rat Bioactive Intact PTH ELISA Kit (mfd. by Immutopics).

CYP2D6 [3] = target: T2, CYP2D6; conditions: reported, Non-patent Reference 4; cited from earlier work
[4] = HEK 293 cell stably expressing human CaSR, 0.5 mM Ca2+ buffer, solvent group 0%, 2 mM Ca2+ group 100%, read-out: EC50 (compound concentration showing 50% activity), human CaSR agonistic activity
[5] = recombinant CYP2D6, AMMC 1.5 μM, 37° C. 30 minutes, read-out: IC50 (concentration showing 50% inhibition), CYP2D6

| EC50 (human CaSR; [4]) [nM] | IC50 (CYP2D6 [1]; [5]) [µM] | SMILES | also measured |
| --- | --- | --- | --- |
| 3.6 | – | C[C@@H](NC[C@H]1CN(c2c(F)cc(C(=O)O)cc2F)C[C@@H]1c1ccccc1)c1cccc2ccccc12 [Example 31, 3,5-difluoro-4-[(3S,4S)-3-({[(1R)-1-(1-naphthyl)ethyl]amino}methyl)-4-phenylpyrrolidin-1-yl]benzoic acid hydrochloride] | IC50 at 30 min (CYP2D6 [1]; human, recombinant CYP2D6 (BD Gentest, Cat. No. 456217), pH 7.4, probe AMMC 1.5 μM, recombinant CYP2D6, AMMC 1.5 μM, 37° C. 30 minutes, read-out: IC50 (concentration showing 50% inhibition), CYP2D6): ≥ 6 µM |
| – | – | C[C@@H](NC[C@H]1CN(C(=O)Oc2ccc(C(=O)O)cc2)C[C@@H]1c1ccccc1)c1cccc2ccccc12.Cl [Example 33, 4-({[(3S,4S)-3-({[(1R)-1-(1-naphthyl)ethyl]amino}methyl)-4-phenylpyrrolidin-1-yl]carbonyl}oxy)benzoic acid hydrochloride] | EC50 (human CaSR): 2.3 nM; Rat plasma calcium concentration reducing ratio (%) 4 hours after administration [2]: 21% |
| 4.9 | ≥ 6 | C[C@@H](NC[C@H]1CN(C(=O)Nc2ccc(C(=O)O)cc2)C[C@@H]1c1ccccc1)c1cccc2ccccc12 [Example 41, 4-({[(3S,4S)-3-({[(1R)-1-(1-naphthyl)ethyl]amino}methyl)-4-phenylpyrrolidin-1-yl]carbonyl}amino)benzoic acid hydrochloride] | – |
| 3.1 | ≥ 6 | COc1cc(C(=O)O)ccc1NC(=O)N1C[C@H](CN[C@H](C)c2cccc3ccccc23)[C@@H](c2ccccc2)C1 [Example 45, 3-methoxy-4-({[(3S,4S)-3-({[(1R)-1-(1-naphthyl)ethyl]amino}methyl)-4-phenylpyrrolidin-1-yl]carbonyl}amino)benzoic acid hydrochloride] | – |
| 4 | – | C[C@@H](NC[C@H]1CN(C(=O)CCCCC(=O)O)C[C@@H]1c1cccc(C(F)(F)F)c1)c1cccc2ccccc12 [Example 48, 6-{(3S,4S)-3-({[(1R)-1-(1-naphthyl)ethyl]amino}methyl)-4-[3-(trifluoromethyl)phenyl]pyrrolidin-1-yl}-6-oxohexanoic acid hydrochloride] | – |
| 5.2 | ≥ 6 | C[C@@H](NC[C@H]1CN(C(=O)c2ccc(-c3ccsc3C(=O)O)o2)C[C@@H]1c1ccccc1)c1cccc2ccccc12 [Example 98] | – |
| 28 | ≥ 6 | C[C@@H](NC[C@H]1CN(C(=O)CC(C)(C)CC(=O)O)C[C@@H]1c1ccccc1)c1cccc2ccccc12 [Example 109] | Rat plasma calcium concentration reducing ratio (%) 4 hours after administration [2]: 17% |
| 15 | – | C[C@@H](NC[C@H]1CN(c2ccc(-c3nnn[nH]3)cc2)C[C@@H]1c1ccccc1)c1cccc2ccccc12 [Example 130] | – |
| 16 | – | Cc1cccc([C@H]2CN(c3c(F)cc(C(=O)O)cc3F)C[C@@H]2CN[C@H](C)c2cccc3ccccc23)c1 [Example 171] | Rat plasma calcium concentration reducing ratio (%) 4 hours after administration [2]: 20% |
| – | – | C[C@@H](NC[C@H]1CN(C(=O)Oc2ccc(C(=O)O)cc2)C[C@@H]1c1cccc(F)c1)c1cccc2ccccc12 [Example 174] | EC50 (human CaSR): 3.4 nM |
| – | – | C[C@@H](NC[C@H]1CN(C(=O)Oc2ccc(C(=O)O)cc2)C[C@@H]1c1cccc(F)c1F)c1cccc2ccccc12 [Example 179] | EC50 (human CaSR): 0.77 nM; IC50 (CYP2D6 [1]): ≥ 6 µM |
| 3.5 | ≥ 6 | COc1cc(C(=O)O)ccc1NC(=O)N1C[C@H](CN[C@H](C)c2cccc3ccccc23)[C@@H](c2cccc(C)c2)C1 [Example 183] | Rat plasma calcium concentration reducing ratio (%) 4 hours after administration [2]: 20% |
| – | – | C[C@@H](NCCCc1cccc(C(F)(F)F)c1)c1cccc2ccccc12 [cinacalcet] | activity to inhibit CYP2D6 (in words) (CYP2D6 [3]): strong activity to inhibit CYP2D6 |

| SMILES | EC50 (human CaSR; [4]) [nM] | IC50 (CYP2D6 [1]; [5]) [µM] | also measured |
| --- | --- | --- | --- |
| CC(NC[C@H]1CN(C(=O)Oc2ccc(C(=O)O)cc2)C[C@@H]1c1ccccc1)c1csc2ccccc12 (stereo partly shown) [compound 53] | 5.2 | – | – |
